Legend:
hα2A receptor = molecular target: T1, hα2A receptor (Homo sapiens, UniProt P08913); assay: Radioligand binding experiment for α2A-adrenoceptor ([3H]raulwolscine, CHO cell membranes); conditions: [3H]raulwolscine binding, read-out: h-α2A pIC50 (converted)
T1 construct: expressed in transfected cells; host or cells: CHO cells, stably transfected; membrane preparation
T1 sequence (P08913 1-465): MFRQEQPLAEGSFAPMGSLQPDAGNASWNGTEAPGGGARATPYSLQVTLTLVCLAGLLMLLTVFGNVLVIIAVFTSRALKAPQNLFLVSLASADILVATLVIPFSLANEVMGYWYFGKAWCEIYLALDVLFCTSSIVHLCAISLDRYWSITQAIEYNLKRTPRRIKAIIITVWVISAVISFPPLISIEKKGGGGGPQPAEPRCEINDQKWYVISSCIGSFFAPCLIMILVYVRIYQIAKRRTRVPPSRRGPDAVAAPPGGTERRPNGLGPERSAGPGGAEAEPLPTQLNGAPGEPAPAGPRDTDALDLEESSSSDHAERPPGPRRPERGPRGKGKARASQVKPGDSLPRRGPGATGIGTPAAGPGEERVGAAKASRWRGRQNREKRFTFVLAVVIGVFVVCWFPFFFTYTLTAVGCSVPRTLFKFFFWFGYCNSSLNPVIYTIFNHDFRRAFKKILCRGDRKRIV

5HT-Transporter = molecular target: T2, 5HT-Transporter (Homo sapiens, UniProt P31645); assay: Binding experiment for the 5HT-transporter ([3H]paroxetine, human platelet membranes); conditions: [3H]paroxetine 0.5 nM, read-out: h-5HTT pIC50 (converted)
T2 construct: Human platelet membranes (Oceanix Biosciences Corporation, Hanover, Md., USA) were thawed; tissue Oceanix Biosciences Corporation, Hanover, Md., USA; host or cells: human platelet membranes
T2 sequence (P31645 whole entry): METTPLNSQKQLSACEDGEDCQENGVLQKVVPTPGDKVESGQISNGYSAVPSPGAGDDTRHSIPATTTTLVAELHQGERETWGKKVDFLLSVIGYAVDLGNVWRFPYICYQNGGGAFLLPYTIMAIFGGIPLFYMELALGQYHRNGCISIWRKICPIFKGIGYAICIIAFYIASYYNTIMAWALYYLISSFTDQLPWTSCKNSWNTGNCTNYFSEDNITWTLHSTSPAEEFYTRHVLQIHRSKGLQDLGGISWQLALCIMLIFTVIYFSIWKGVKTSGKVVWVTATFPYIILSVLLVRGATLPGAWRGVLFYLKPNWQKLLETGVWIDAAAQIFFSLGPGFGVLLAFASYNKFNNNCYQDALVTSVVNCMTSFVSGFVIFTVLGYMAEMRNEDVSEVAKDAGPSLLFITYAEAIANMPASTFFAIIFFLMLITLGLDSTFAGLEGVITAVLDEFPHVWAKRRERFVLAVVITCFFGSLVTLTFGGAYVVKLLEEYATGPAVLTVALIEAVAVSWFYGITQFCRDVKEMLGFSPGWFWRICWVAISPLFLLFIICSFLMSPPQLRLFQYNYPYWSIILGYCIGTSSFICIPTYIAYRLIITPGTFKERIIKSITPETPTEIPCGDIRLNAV
How it was run: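 Competition binding of [3H]paroxetine to human platelet membranes in Tris-HCl 50 mM, 120 mM NaCl, 5 mM KCl, with filtration and scintillation counting.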

hα2C receptor = molecular target: T3, hα2C receptor (Homo sapiens, UniProt P18825); assay: Radioligand binding experiment for α2C-adrenoceptor ([3H]raulwolscine, CHO cell membranes); conditions: [3H]raulwolscine binding, read-out: h-α2C pIC50 (converted)
T3 construct: expressed in transfected cells; host or cells: CHO cells, stably transfected; membrane preparation
T3 sequence (P18825 1-462): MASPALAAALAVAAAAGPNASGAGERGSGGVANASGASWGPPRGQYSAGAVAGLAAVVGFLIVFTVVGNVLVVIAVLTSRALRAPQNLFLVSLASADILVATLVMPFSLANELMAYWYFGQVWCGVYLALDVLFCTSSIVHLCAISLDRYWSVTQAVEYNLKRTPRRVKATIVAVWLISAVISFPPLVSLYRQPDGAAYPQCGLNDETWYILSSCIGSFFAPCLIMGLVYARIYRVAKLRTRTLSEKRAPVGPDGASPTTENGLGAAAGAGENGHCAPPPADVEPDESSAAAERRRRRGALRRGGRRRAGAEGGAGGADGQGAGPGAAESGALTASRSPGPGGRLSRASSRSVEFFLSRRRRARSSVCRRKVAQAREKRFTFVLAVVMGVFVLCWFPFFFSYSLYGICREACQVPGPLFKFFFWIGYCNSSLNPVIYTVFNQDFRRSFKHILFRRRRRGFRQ

| melting point [°C] | IC50 (hα2A receptor) [nM] | IC50 (5HT-Transporter) [nM] | IC50 (hα2C receptor) [nM] | Structure (SMILES) |
| --- | --- | --- | --- | --- |
| 123 | 126 | 631 | 31.6 | C/C(=C\c1ccccc1)CN1CCC(Nc2nccn(Cc3ccc([N+](=O)[O-])cc3)c2=O)CC1 [5-25] |
| 107 | 63.1 | 2000 | 31.6 | C/C(=C\c1ccccc1)CN1CCC(Nc2nccn(Cc3cc(C)on3)c2=O)CC1 [6-3] |
| 210 | 39.8 | 1000 | 6.31 | C/C(=C\c1ccccc1)CN1CCC(Nc2nccn(-c3ccsc3)c2=O)CC1 [6-4] |
| 126 | 31.6 | 2000 | 12.6 | C=CCn1ccnc(NC2CCN(C/C(C)=C/c3ccccc3)CC2)c1=O [7-11] |

Reference: US20090111801A1, “SUBSTITUTED PYRAZINONE DERIVATIVES FOR USE AS A MEDICINE” (Janssen Pharmaceutica N.V., priority 2006, published 2009)
